Test results as given in US20020077322A1, “Protection of neurons against glutamate-induced damage in glaucoma and other conditions” (priority 2000, published 2002).

What was measured:
Type in all cases: in vivo, C57/BL6 mice
retinal ganglion cells [1] = test: Topical WIN55212-2 after intravitreal NMDA; counts of surviving retinal ganglion cells (Example 2)
Experimental: (§1) Experiments were performed on adult C57/BL6 mice of an average of 4 months, weighing 15-25 g. Animals were given food and water ad libitum. All studies were conducted in accordance with the principles and procedures outlined in the National Institute of Health (NIH) Guide for the Care and Use of Laboratory Animals.
Two sterile solutions were administered by intravitreal injection: balanced saline solution, and NMDA (Sigma). The NMDA solution was comprised of 320 mM NMDA in balanced saline solution (net of 160 nmol of NMDA injected per eye).
(§2) Intravitreal Injections: Mice were anaesthetized by intraperitoneal injection of 0.017 ml/g body weight of a solution containing 1.75% tribromoethanol and 1.75% tertiary amyl alcohol. A topical application of 0.5% proparacaine hydrochloride was administered prior to intravitreal injections. A small incision was made with a 22-gauge needle in the dorsal limbus, through the conjunctiva and sclera. A Hamilton syringe was passed through this incision at a 40 to 50 degree angle to the equator to administer the solution. All eyes were injected with 0.5μl of solution. All procedures were performed under microscopy. Occasionally this procedure produced cataracts in mice (less than 5%) due to damage to the lens with the syringe. These mice were not used in the analysis.
Topical Application of cannabinoid: A topical application solution of WIN55212-2 (Sigma) was prepared in 2-hydroxypropyl-β-cyclodextrin (Sigma). This solution contained 2.4 mg of WIN55212-2 in 1 ml 2-hydroxypropyl-β-cyclodextrin.
10 μl of this WIN55212-2 solution was applied to the anterior surface of the eye. In the experiments described, it was applied three times daily on one eye only. The applications of the WIN solution began one day after the NMDA injections were made, to allow time for the surface of the eye to heal, and the topical applications were made for 9 days. Thus, while each eye received the NMDA injections, only one eye of each animal had the WIN solution applied onto it.
Tissue Preparation: Flat mount preparations of the retinae and counts of cells in the retinal ganglion cell layers were performed to evaluate cell loss. Ten days after intravitreal injections, animals were euthanized by an intraperitoneal overdose injection of pentobarbital. Animals were immediately perfused with 4% paraformaldehyde, and the eyes enucleated. The retinae were dissected and mounted onto gelatinized slides, ganglion cell layer up. Several radial cuts were made at the periphery, and the surface was cleared and flattened with a fine brush (camel hair, size 0). […]
Morphometric Analysis: The ganglion cell layer was imaged at 400X and 630X and cells were counted within 120×120 μm square grids. […]

retinal ganglion cells [2] = test: Intravitreal NMDA with or without co-injected WIN 55,212-2; counts of surviving cells in the retinal ganglion cell layer (Example 1)
Experimental: as §1
Three sterile solutions were administered by intravitreal injection: balanced saline solution, NMDA (Sigma) and NMDA plus WIN 55,212-2 (Sigma). The NMDA solution was comprised of 320 mM NMDA in balanced saline solution (net of 160 nmol of NMDA injected per eye). The WIN solution contained 0.5 mM WIN 55,212-2 in the NMDA solution using a DMSO vehicle (less than 0.1% of solution) to carry WIN (net of 0.25 nmol of WIN injected per eye).
as §2, with “Injections” for “Injections:”, “0.5 μl” for “0.5μl”
Tissue Preparation Flat mount preparations of the retinae and counts of cells in the retinal ganglion cell layers were performed to evaluate cell loss. Ten days after intravitreal injections, animals were euthanized by an intraperitoneal overdose injection of pentobarbital. Animals were immediately perfused with 4% paraformaldehyde, and the eyes enucleated. The retinae were dissected and mounted onto gelatinized slides, ganglion cell layer up. Several radial cuts were made at the periphery, and the surface was cleared and flattened with a fine brush (camel hair, size 0). The flat mounted retinae were immersed overnight in a solution containing 10% formaldehyde and 90% alcohol. The sections were subsequently dehydrated and stained with 0.5-1% cresyl violet and enclosed with coverslips.
Morphometric Analysis (Quantification of Cell Loss in the Retinal Ganglion Cell Layer) The ganglion cell layer was imaged at 400×and cells were counted within 70×70 um grids. […] Quandrant counts from each retina were averaged to give the value for each eye. Morphologically distinguishable glial cells and vascular endothelial cells were excluded from the cell count, but no attempt was made to distinguish between ganglion and amacrine cells. […]

retinal ganglion cells [3] = test: Effect of cannabinoid antagonists on WIN protection of NMDA-treated retinal ganglion cells (Example 3); details: preliminary tests
Experimental: A topical application of 0.5% proparacaine hydrochloride was administered prior to intravitreal injections. A small incision was made with a 22-gauge needle in the dorsal limbus, through the conjunctiva and sclera. A Hamilton syringe was passed through this incision at a 40 to 50 degree angle to the equator to administer the solution. All eyes were injected with 0.5 μl of solution. All procedures were performed under microscopy. […] These mice were not used in the analysis.
Tissue Preparation: Flat mount preparations of the retinae and counts of cells in the retinal ganglion cell layers were performed to evaluate cell loss. Ten days after intravitreal injections, animals were euthanized by an intraperitoneal overdose injection of pentobarbital. Animals were immediately perfused with 4% paraformaldehyde, and the eyes enucleated. The retinae were dissected and mounted onto gelatinized slides, ganglion cell layer up. […]

[4] = intravitreal, 160 nmol NMDA per eye, 10 day period, vs saline eye
[5] = single intravitreal application, 0.25 nmol WIN per eye with NMDA, 10 days

CN[C@H](CC(=O)O)C(=O)O [NMDA, N-methyl-D-aspartate]
loss of retinal ganglion cells caused by NMDA (retinal ganglion cells [1]; [4]): 70% | loss of retinal ganglion cells caused by NMDA (retinal ganglion cells [2]; [4]): 70%

Cc1c(C(=O)c2cccc3ccccc23)c2cccc3c2n1[C@H](CN1CCOCC1)CO3 [WIN]
excitotoxic damage in ganglion cell layer, photomicrographs (FIG. 4) (retinal ganglion cells [1]; NMDA-treated retina, unilateral topical WIN55212-2): ameliorated the excitotoxic damage | retinal ganglion cells protected, contralateral eye (no WIN directly applied) (retinal ganglion cells [1]; WIN applied topically to the other eye, presumably systemic delivery): about 25% | resulting loss of ganglion cells, NMDA plus topical WIN, treated eye (retinal ganglion cells [1]; topical WIN on days 2-9, 10 day period): 30% | increase in number of surviving ganglion cells (NMDA+WIN vs NMDA eye) (retinal ganglion cells [2]; FIG. 5 left pair of bars, data taken from Example 1): by a factor of two | diminution of NMDA-induced ganglion cell loss (retinal ganglion cells [2]; [5]): 80% | resulting loss of ganglion cells with NMDA plus WIN (retinal ganglion cells [2]; [5]): 30%

COc1ccc(C(=O)c2c(C)n(CCN3CCOCC3)c3cc(I)ccc23)cc1 [AM 630]
cell counts with CB2 antagonist in combination with WIN and NMDA (retinal ganglion cells [3]): same cell counts as the WIN+NMDA eye
